Measurements taken from ChEMBL document CHEMBL5154641, “Targeting transthyretin in Alzheimer's disease: Drug discovery of small-molecule chaperones as disease-modifying drug candidates for Alzheimer's disease” (Eur J Med Chem, 2021).
Active and inactive are the calls of the source. No cut-off for these calls is given here.

How the values were obtained:
Homo sapiens [1] = species: Homo sapiens; assay: Binding affinity to wild type TTR/Amyloid beta (1 to 40 residues) binary complex (unknown origin) assessed as Gibbs free energy change for binary complex by isothermal titration calorimetry
Homo sapiens [2] = species: Homo sapiens; assay: Binding affinity to wild type TTR/Amyloid beta (1 to 40 residues) binary complex (unknown origin) assessed as change in enthalpy binary by isothermal titration calorimetry
Homo sapiens [3] = species: Homo sapiens; assay: Binding affinity to wild type TTR/Amyloid beta (1 to 40 residues) binary complex (unknown origin) assessed as change in entropy for binary complex by isothermal titration calorimetry
SH-SY5Y = assay: Neuroprotective activity against amyloid beta (1 to 42 residues)-induced cell injury in human SH-SY5Y cells assessed as reduction in caspase 3 level; format: functional, cell-based
[4] = target: Transthyretin (Homo sapiens) (UniProt P02766); assay: Displacement of [125I]-T4 from human recombinant TTR expressed in Escherichia coli BL21(DE3) Star by gamma spectrometric analysis
[5] = Binding affinity to wild type TTR/Amyloid beta (1 to 40 residues) binary complex (unknown origin) assessed as complex dissociation constant by isothermal titration calorimetry; design: species or system Homo sapiens

| Compound | deltaG (Homo sapiens [1]) [kcal/mol] | deltaH (Homo sapiens [2]) [kcal/mol] | -TdeltaS (Homo sapiens [3]) [kcal/mol] | Activity (SH-SY5Y) | Activity [4] | Kd [5] [nM] |
| --- | --- | --- | --- | --- | --- | --- |
| O=C(O)c1cc(-c2ccc(F)cc2F)cc(I)c1O | -7.67 | -1.54 | -6.13 | Active | Active | – |
| C=Cc1cc2oc(-c3ccc(O)c(F)c3)nc2cc1O | – | – | – | – | Active | – |
| CC/C(=C(/CC)c1ccc(O)cc1)c1ccc(O)cc1 | – | – | – | – | Active | – |
| CCCCN(CCCC)C[C@H](O)c1cc(Cl)cc2c1-c1ccc(Cl)cc1/C2=C/c1ccc(Cl)cc1 | – | – | – | – | Active | – |
| CCc1ccc(CCOc2ccc(CC3SC(=O)NC3=O)cc2)nc1 (stereo not drawn) | – | – | – | – | Active | – |
| COc1ccccc1Oc1ccc(N(Cc2cccnc2)S(=O)(=O)CC(F)(F)F)cc1 | – | – | – | – | Active | – |
| Cc1ccc(C(=O)c2cc(O)c(O)c([N+](=O)[O-])c2)cc1 | – | – | – | – | Active | – |
| O=C(O)CCNC(=O)CCNC(=O)c1cc(-c2ccc(F)cc2F)cc(I)c1O | – | – | – | – | Active | – |
| O=C(O)c1cc(-c2ccc3ccccc3c2)cc(I)c1O | – | – | – | – | Active | – |
| O=C(O)c1cc(/N=N/c2cccc([N+](=O)[O-])c2)cc(I)c1O | – | – | – | – | Active | – |
| O=C(O)c1cc(/N=N/c2cccc([N+](=O)[O-])c2)ccc1O | – | – | – | – | Active | – |
| O=C(O)c1ccc2nc(-c3cc(Cl)cc(Cl)c3)oc2c1 | – | – | – | – | Active | – |
| Oc1c(I)cc(Cl)c2cccnc12 | – | – | – | – | Active | – |
| Oc1c(I)cc(I)cc1I | – | – | – | – | Active | – |
| O=C(O)c1ccccc1Nc1cccc(C(F)(F)F)c1 [FLUFENAMIC ACID] | -8.28 | -3.66 | 4.62 | Active | – | 2340 |
| O=c1cc(-c2ccc(O)c(O)c2)oc2cc(O)cc(O)c12 [LUTEOLIN] | -7.93 | -0.53 | 7.3 | Active | Active | 1520 |
| O=C(O)c1cc(/N=N/c2ccc(O)c(C(=O)O)c2)ccc1O [OLSALAZINE] | -8.7 | -8.72 | 0.02 | Active | – | 810 |
| CC1=C(CC(=O)O)c2cc(F)ccc2/C1=C\c1ccc([S+](C)[O-])cc1 (stereo not drawn) [SULINDAC] | -8.15 | -3.23 | -4.92 | – | – | 3420 |
